2 molecules from publication PMC11980366, “Natural compounds target the M23B zinc metallopeptidase Mpg to modulate Neisseria gonorrhoeae Type IV pilus expression” (mBio, 2025) can be followed below.

This assay deals with Mpg (Neisseria gonorrhoeae, UniProt Q5F676). Description: fluorescence thermal shift (Sypro-Orange). Type of assay: binding. The following applies: read-out: dTm at 5 μM.

Molecules are shown by their SMILES.

Chain of Mpg (Q5F676 31-430): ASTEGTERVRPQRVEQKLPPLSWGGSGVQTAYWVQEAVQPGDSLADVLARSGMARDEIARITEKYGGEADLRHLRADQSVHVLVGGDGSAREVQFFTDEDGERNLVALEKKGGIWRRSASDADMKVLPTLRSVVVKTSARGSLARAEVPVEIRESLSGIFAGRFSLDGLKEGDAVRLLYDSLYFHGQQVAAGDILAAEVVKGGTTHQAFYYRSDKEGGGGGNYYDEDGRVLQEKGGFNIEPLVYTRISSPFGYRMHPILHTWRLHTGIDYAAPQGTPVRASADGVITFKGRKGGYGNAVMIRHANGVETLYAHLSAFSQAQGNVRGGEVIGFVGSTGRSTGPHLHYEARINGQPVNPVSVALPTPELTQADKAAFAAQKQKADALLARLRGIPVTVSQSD

In the case of `O=C1O[C@H]2[C@@H]3OC(=O)c4cc(O)c(O)c(O)c4-c4c(O)c(O)c5oc(=O)c6c(c(O)c(O)c7oc(=O)c4c5c76)-c4c(cc(O)c(O)c4O)C(=O)OC[C@H]3OC(O)[C@@H]2OC(=O)c2cc(O)c(O)c(O)c2-c2c1cc(O)c(O)c2O` (mixture of isomers) [punicalagin], the ΔTm at 5 µM is -4.4 °C.
Under `O=C(O)C[C@@H]1C(=O)O[C@H]2[C@H](OC(=O)c3cc(O)c(O)c(O)c3)[C@@H](OC(=O)c3cc(O)c(O)c4c3[C@H]1[C@@H](O)C(=O)O4)[C@H](OC(=O)c1cc(O)c(O)c(O)c1)O[C@@H]2COC(=O)c1cc(O)c(O)c(O)c1` [chebulinic acid] stands -2.9 °C.
